Assay results from paper PMC9501014, “Amaryllidaceae-Type Alkaloids from Pancratium maritimum: Apoptosis-Inducing Effect and Cell Cycle Arrest on Triple-Negative Breast Cancer Cells” (Molecules, 2022).

How the values were obtained:
MDA-MB-231 cells = test: Combination therapy with etoposide (SRB, CompuSyn), MDA-MB-231; format: cell-based, human
Protocol: (§1) The effect of 1.5 μM of compound 7 in combination with a range of concentrations of etoposide was evaluated after 48 h of treatment using CompuSyn software to calculate the combination index (CI) values for each combined treatment: CI < 1, synergy; 1 < CI < 1.1, additive effect; CI > 1.1, antagonism.
(§2) The effect of combined treatments on cell proliferation was analyzed by SRB assay. For each combination, the combination index (CI) values were calculated using the CompuSyn Software version 1.0; CI values < 1, 1 < CI < 1.1, and >1.1 indicate synergistic, additive, and antagonistic effects, respectively.

HFF-1 cells [1] = test: Combination therapy with etoposide (SRB, CompuSyn), HFF-1; format: cell-based, human; conditions: for Combination Index HFF-1: 48 h
Protocol: as §1, §2

MCF-7 cells = test: Sulforhodamine B antiproliferative assay, MCF-7; format: cell-based, human
Protocol: (§3) The antiproliferative effect of the isolated compounds (1–11) was investigated by the sulforhodamine B assay against human triple-negative breast cancer cell lines (MDA-MB-468 and MDA-MB-231) and breast ductal carcinoma cells (MCF-7) and the non-tumorigenic fibroblast (HFF-1) and breast cell lines (MCF12A). The IC50 values were determined after 48 h of treatment (Table 1).
(§4) Human breast adenocarcinoma MDA-MB-231, MDA-MB-468, and MCF-7 cell lines and non-tumorigenic foreskin fibroblast (HFF-1) and breast (MCF12A) cell lines were purchased from American Type Culture Collection (ATCC, Rockville, MD, USA). All cancer cell lines, except MCF12A, were routinely cultured in RPMI-1640 medium with glutamine from Corning (VWR, Carnaxide, Portugal) supplemented with 10% fetal bovine serum (FBS) from Biowest (Labclinics, Barcelona, Spain). MCF12A cells were cultured in a 1:1 mixture of Dulbecco’s modified Eagle’s medium and Ham’s F12 medium, 20 ng/mL human epidermal growth factor, 100 ng/mL cholera toxin, 0.01 mg/mL bovine insulin, and 500 ng/mL hydrocortisone and supplemented with 10% FBS. All cells were maintained in a humidified incubator at 37 °C with 5% CO2. All cells were routinely tested for mycoplasma contamination using the MycoAlertTM PLUS detection kit (Lonza, Basel, Switzerland).
(§5) Human cell lines were seeded in 96-well plates at a density of 5.0 × 10^3 (MDA-MB-231, MCF-7, HFF-1, and MCF12A) and 7.5 × 10^3 (MDA-MB-468) cells/well and allowed to adhere for 24 h. Cells were treated with serial dilutions of compounds (ranging from 0.1 to 40 μM) for an additional 48 h. Effect on cell proliferation was measured by sulforhodamine B assay, as described in [33], and the half-maximal inhibitory concentration (IC50) was then determined for each cell line using the GraphPad Prism software version 7.0 (La Jolla, CA, USA).

HFF-1 cells [2] = test: Sulforhodamine B antiproliferative assay, non-tumorigenic fibroblast HFF-1; format: cell-based; conditions: Homo sapiens, 48 h of treatment, read-out: IC50 HFF-1 (E)
Protocol: as §3, §4, §5

[3] = system: Bax, Bcl-xL, p21, p53 protein expression in MDA-MB-231 cells; test: Western blot analysis of protein expression levels; format: cell-based, human; conditions: 16 µM, 48 h
Protocol: Once compound 7 induced cancer cell death by apoptosis, we next explored the molecular pathways involved in its apoptotic effect. For that, some apoptotic-related proteins were checked in MDA-MB-231 cells treated with 16 µM of compound 7 for 48 h (Figure 2E,F).
MDA-MB-231 cells were seeded in 6-well plates at a density of 1.5 × 10^5 cells/well for 24 h, followed by treatment with 16 µM of compound 7. Protein extracts were quantified using the Bradford reagent (Sigma-Aldrich). Proteins were run in SDS-PAGE and transferred to a Whatman nitrocellulose membrane from Protan (VWR, Carnaxide, Portugal). After blocking, proteins were identified using specific primary antibodies: rabbit polyclonal anti-p21 (Santa Cruz Biotechnology, Dallas, […], USA), rabbit polyclonal anti-Bax, and rabbit monoclonal anti-Bcl-xL (Invitrogen, Waltham, MA, USA), followed by the respective anti-mouse/anti-rabbit HRP-conjugated secondary antibodies (Santa Cruz Biotechnology). GAPDH was used as a loading control. The signal was detected with the ECL Amersham kit from GE Healthcare (VWR, Carnaxide, Portugal). Two detection methods were used: the Kodak GBX developer and fixer (Sigma-Aldrich) or the ChemiDoc™ XRS Imaging System from Bio-Rad Laboratories (Amadora, Portugal).

## COc1cc2c(cc1O)C(=O)OC1[C@@H](O)C=C3CCN(C)C3[C@]21O (stereo partly drawn) [Compound 7, 2α-10bα-dihydroxy-9-O-demethylhomolycorine]
MDA-MB-231 cells; 1.5 µM compound 7 + etoposide 0.4 µM, 48 h
  Combination Index MDA-MB-231: 1.23
MDA-MB-231 cells; 1.5 µM compound 7 + etoposide 0.8 µM, 48 h
  Combination Index MDA-MB-231: 0.87
MDA-MB-231 cells; 1.5 µM compound 7 + etoposide 1.5 µM, 48 h
  Combination Index MDA-MB-231: 0.81
MDA-MB-231 cells; 1.5 µM compound 7 + etoposide 3 µM, 48 h
  Combination Index MDA-MB-231: 0.86
MDA-MB-231 cells; 1.5 µM compound 7, etoposide 0.8, 1.5 and 3 µM
  type of interaction with etoposide, MDA-MB-231: synergistic effects
MDA-MB-231 cells; 1.5 µM compound 7, etoposide 0.8, 1.5 and 3 µM, 48 h
  effect on growth inhibitory effect of etoposide: significantly increased the growth inhibitory effect of etoposide
HFF-1 cells [1]; 1.5 µM compound 7 + etoposide 0.4 µM
  Combination Index HFF-1: 1.19
HFF-1 cells [1]; 1.5 µM compound 7 + etoposide 0.8 µM
  Combination Index HFF-1: 1.34
HFF-1 cells [1]; 1.5 µM compound 7 + etoposide 1.5 µM
  Combination Index HFF-1: 1.12
HFF-1 cells [1]; 1.5 µM compound 7 + etoposide 3 µM
  Combination Index HFF-1: 1.09
HFF-1 cells [1]; same experimental conditions as in MDA-MB-231 cells
  type of interaction with etoposide, HFF-1: no synergistic effects
MCF-7 cells; Homo sapiens, MCF7, 48 h, sulforhodamine B assay, 48 h of treatment, read-out: IC50 MCF-7 (C)
  IC50: 6.8 ± 0.2 µM
MCF-7 cells; selectivity index, MCF12A vs MCF-7
  SI D/C: 0.82
HFF-1 cells [2]
  IC50: 13.3 ± 3.28 µM
[3]; MDA-MB-231
  Bax protein levels: increased levels
  Bcl-xL protein levels: reduced levels
  p21 protein levels: increased the p21 protein levels
[3]; MDA-MB-231, data not shown
  p53 protein expression levels: did not interfere
